System: Wistar rats
Experiment: hypoglycaemic activity in 18 hour fasted Wistar rats
Assay type: in vivo
Method: The compound was evaluated for hypoglycaemic activity in 18 hour fasted Wistar rats. […] The mean fall recorded was 24 mg/100 ml blood, from an initial mean of 91 to mean of 67 mg/100 ml blood.

SMILES | mean fall (positive control, dose not given) | hypoglycaemic effect (dose of 15 mg/kg p.o.) | mean (after treatment) (dose of 15 mg/kg p.o., from an initial mean of 91) [mg/100 ml blood] | mean fall (dose of 15 mg/kg p.o., initial mean of 91 mg/100 ml blood) [mg/100 ml blood]
CCCNC(=O)NS(=O)(=O)c1ccc(Cl)cc1 [chlorpropamide, reference compound] | 18 mg/100 ml of blood | – | – | –
OC[C@H]1O[C@@H](c2c(O)ccc3cc(Cc4ccc(O)cc4)oc23)[C@H](O)[C@@H](O)[C@@H]1O [formula 1, 6-hydroxy-2-p-hydroxybenzylbenzofuran-7-C-β-D-glucopyranoside] | – | hypoglycaemic effect was recorded in all the treated rats | 67 | 24
